Laboratory results reported in patent US20020137929A1, “1 - (3-heterocyclylphenyl) isothiourea, -isourea, -guanidine and -amidine herbicidal agents” (Intellectual Property Department, BASF Aktiengesellschaft, priority 1998, published 2002).

Columns and labels:
CYPIR (Rice Flatsedge) = assay: Preemergence weed control under flooded paddy conditions; format: in vivo, Cyperus iria; conditions: 0.2500 kg/ha, rated 3-4 weeks after treatment
How it was run: (§1)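 Seeds or propagules sown in silt loam kept flooded 1.5-3 cm; compounds in 50/50 acetone/water pipetted into flood water at about 0.0313 to 0.500 kg/ha. Greenhouse; visual 0-9 rating versus untreated control 3-4 weeks after treatment.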

CASOB (Sicklepod) = assay: Postemergence herbicidal evaluation; format: in vivo, Cassia obtusifolia
How it was run: (§2)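 Seedlings grown about two weeks were sprayed at 40 psi with compound dispersed in 50/50 acetone/water plus 0.5% TWEEN 20, at about 0.0156 to 0.500 kg/ha. Plants were kept in the greenhouse and scored 4–5 weeks later on a 0–9 visual scale against untreated controls.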

[1] = system: TRZAWR (Wheat, Winter, cv Riband); assay: Preemergence herbicidal evaluation; format: in vivo, Triticum aestivum; conditions: rated 4-5 weeks after treatment
How it was run: (§3)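 Greenhouse preemergence test: seed-soil mix sown on ~1 inch soil; aqueous acetone spray at equivalent of ~0.0156–0.500 kg/ha; greenhouse-held and watered; scored 0–9 visually at 4–5 weeks.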

CYPSE (Flatsedge) [2] = assay: Preemergence weed control under flooded paddy conditions; format: in vivo, Cyperus serotinus; conditions: 0.2500 kg/ha, rated 3-4 weeks after treatment
How it was run: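 Values are visual 0-9 scores against a control for a preemergence application into paddy flood water at about 0.0313 to 0.500 kg/ha. Greenhouse duration was three to four weeks.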

ZEAMX (Corn, Field) [3] = assay: Preemergence herbicidal evaluation; format: in vivo, Zea mays; conditions: rated 4-5 weeks after treatment
How it was run: as §3

GALAP (Galium) = assay: Postemergence herbicidal evaluation; format: in vivo, Galium aparine
How it was run: as §2

ORYSAT (Rice, Tebonnet) = assay: Preemergence herbicidal evaluation; format: in vivo, Oryza sativa, (L.) Tebonnet; conditions: rated 4-5 weeks after treatment
How it was run: as §3

[4] = system: IPOHE (Morningglory, Ivyleaf); assay: Preemergence herbicidal evaluation; format: in vivo, Ipomoea hederacea; conditions: rated 4-5 weeks after treatment
How it was run: as §3

AMBEL (Ragweed, Common) = assay: Preemergence herbicidal evaluation; format: in vivo, Ambrosia artemisifolia; conditions: rated 4-5 weeks after treatment
How it was run: as §3

[5] = system: ECHORC (Watergrass (Calif.)); assay: Preemergence weed control under flooded paddy conditions; format: in vivo, Echinochloa oryzoides; conditions: 0.2500 kg/ha, rated 3-4 weeks after treatment
How it was run: as §1

CYPSE (Flatsedge) [6] = assay: Postemergence weed control under flooded paddy conditions; format: in vivo, Cyperus serotinus; conditions: postemergence weeds
How it was run: (§4)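 Weeds 3 to 5 cm tall and rice seedlings at the 1.5 to 2.5 leaf stage were flooded, with water held 1.5 to 3 cm above the soil. Compounds in 50/50 v/v aqueous/acetone went into the flood water at about 0.0313 to 0.500 kg/ha. Visual 0-9 ratings versus control were made 3 to 4 weeks later.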

[7] = system: ECHORC (Watergrass (Calif.)); assay: as above; format: in vivo, Echinochloa oryzoides; conditions: postemergence weeds
How it was run: as §4

ZEAMX (Corn, Field) [8] = assay: Postemergence herbicidal evaluation; format: in vivo, Zea mays
How it was run: as §2

[9] = system: CHEAL (Lambsquarters, Common); assay: Preemergence herbicidal evaluation; format: in vivo, Chenopodium album; conditions: rated 4-5 weeks after treatment
How it was run: as §3

[10] = rate 0.2500 kg/ha, 3-4 weeks after treatment
[11] = Rate 0.2500 kg/ha, rated 3 to 4 weeks after treatment

CCOC(=O)CN1C(=O)C(CC(=O)O)SC1=Nc1cc(-n2c(=O)cc(C(F)(F)F)n(C)c2=O)c(Cl)cc1Cl (stereo not drawn) [Compound 33, 2-{{2,4-Dichloro-5-[3,6-dihydro-3-methyl-2,6-dioxo-4-(trifluoromethyl)-1(2H)-pyrimidinyl]phenyl}-imino}-4-oxo-3,5-thiazolidinediacetic acid, 3-ethyl ester]
Herbicidal rating CYPIR (CYPIR (Rice Flatsedge)): 0.0
Postemergence herbicidal rating CASOB (CASOB (Sicklepod); Rate 0.0158 kg/ha): 0.0
Postemergence herbicidal rating CASOB (CASOB (Sicklepod); Rate 0.0315 kg/ha): 1.0
Postemergence herbicidal rating CASOB (CASOB (Sicklepod); Rate 0.0630 kg/ha): 5.0
Preemergence herbicidal rating TRZAWR ([1]; rate 0.0156 kg/ha): 0.0
Preemergence herbicidal rating TRZAWR ([1]; rate 0.0313 kg/ha): 0.0
Preemergence herbicidal rating TRZAWR ([1]; rate 0.0625 kg/ha): 0.0
Preemergence herbicidal rating TRZAWR ([1]; rate 0.1250 kg/ha): 0.0
Preemergence herbicidal rating TRZAWR ([1]; rate 0.2500 kg/ha): 0.0
Herbicidal rating CYPSE (CYPSE (Flatsedge) [2]): 0.0
Preemergence herbicidal rating ZEAMX (ZEAMX (Corn, Field) [3]; rate 0.0156 kg/ha): 0.0
Preemergence herbicidal rating ZEAMX (ZEAMX (Corn, Field) [3]; rate 0.0313 kg/ha): 0.0
Preemergence herbicidal rating ZEAMX (ZEAMX (Corn, Field) [3]; rate 0.0625 kg/ha): 0.0
Preemergence herbicidal rating ZEAMX (ZEAMX (Corn, Field) [3]; rate 0.1250 kg/ha): 0.0
Preemergence herbicidal rating ZEAMX (ZEAMX (Corn, Field) [3]; rate 0.2500 kg/ha): 0.0
Postemergence herbicidal rating GALAP (GALAP (Galium); Rate 0.0158 kg/ha): 3.0
Postemergence herbicidal rating GALAP (GALAP (Galium); Rate 0.0315 kg/ha): 4.0
Postemergence herbicidal rating GALAP (GALAP (Galium); Rate 0.0630 kg/ha): 5.0
Preemergence herbicidal rating ORYSAT (ORYSAT (Rice, Tebonnet); rate 0.0156 kg/ha): 0.0
Preemergence herbicidal rating ORYSAT (ORYSAT (Rice, Tebonnet); rate 0.0313 kg/ha): 0.0
Preemergence herbicidal rating ORYSAT (ORYSAT (Rice, Tebonnet); rate 0.0625 kg/ha): 0.0
Preemergence herbicidal rating ORYSAT (ORYSAT (Rice, Tebonnet); rate 0.1250 kg/ha): 0.0
Preemergence herbicidal rating ORYSAT (ORYSAT (Rice, Tebonnet); rate 0.2500 kg/ha): 0.0
Preemergence herbicidal rating IPOHE ([4]; rate 0.0156 kg/ha): 0.0
Preemergence herbicidal rating IPOHE ([4]; rate 0.0313 kg/ha): 0.0
Preemergence herbicidal rating IPOHE ([4]; rate 0.0625 kg/ha): 0.0
Preemergence herbicidal rating IPOHE ([4]; rate 0.1250 kg/ha): 0.0
Preemergence herbicidal rating IPOHE ([4]; rate 0.2500 kg/ha): 9.0
Preemergence herbicidal rating AMBEL (AMBEL (Ragweed, Common); rate 0.0156 kg/ha): 0.0
Preemergence herbicidal rating AMBEL (AMBEL (Ragweed, Common); rate 0.0313 kg/ha): 0.0
Preemergence herbicidal rating AMBEL (AMBEL (Ragweed, Common); rate 0.0625 kg/ha): 9.0
Preemergence herbicidal rating AMBEL (AMBEL (Ragweed, Common); rate 0.1250 kg/ha): 9.0
Preemergence herbicidal rating AMBEL (AMBEL (Ragweed, Common); rate 0.2500 kg/ha): 9.0
Herbicidal rating ECHORC [5]: 0.0
Herbicidal rating CYPSE (CYPSE (Flatsedge) [6]; [10]): 0.0
Herbicidal rating ECHORC [7, 10]: 0.0
Postemergence herbicidal rating ZEAMX (ZEAMX (Corn, Field) [8]; Rate 0.0158 kg/ha): 7.5
Postemergence herbicidal rating ZEAMX (ZEAMX (Corn, Field) [8]; Rate 0.0315 kg/ha): 8.0
Postemergence herbicidal rating ZEAMX (ZEAMX (Corn, Field) [8]; Rate 0.0630 kg/ha): 8.5
Preemergence herbicidal rating CHEAL ([9]; rate 0.0156 kg/ha): 4.0
Preemergence herbicidal rating CHEAL ([9]; rate 0.0625 kg/ha): 7.0
Preemergence herbicidal rating CHEAL ([9]; rate 0.1250 kg/ha): 9.0
Preemergence herbicidal rating CHEAL ([9]; rate 0.2500 kg/ha): 9.0

Cn1c(C(F)(F)F)cc(=O)n(-c2cc(/N=C3/SC(CC(=O)O)C(=O)N3CC(=O)O)c(Cl)cc2F)c1=O (stereo not drawn) [Compound 61, 2-{{2-Chloro-5-[3,6-dihydro-3-methyl-2,6-dioxo-4-(trifluoromethyl)-1(2H)-pyrimidinyl]-4-fluorophenyl}imino}-4-oxo-3,5-thiazolidinediacetic acid]
CYPIR herbicidal effect rating (CYPIR (Rice Flatsedge)): 0.0
Postemergence herbicidal rating CASOB (CASOB (Sicklepod); Rate 0.0158 kg/ha): 0.0
Postemergence herbicidal rating CASOB (CASOB (Sicklepod); Rate 0.0315 kg/ha): 0.0
Postemergence herbicidal rating CASOB (CASOB (Sicklepod); Rate 0.0630 kg/ha): 0.0
Preemergence herbicidal rating TRZAWR ([1]; rate 0.1250 kg/ha): 0.0
Preemergence herbicidal rating TRZAWR ([1]; rate 0.2500 kg/ha): 1.0
CYPSE herbicidal effect rating (CYPSE (Flatsedge) [2]): 0.0
Preemergence herbicidal rating ZEAMX (ZEAMX (Corn, Field) [3]; rate 0.1250 kg/ha): 0.0
Preemergence herbicidal rating ZEAMX (ZEAMX (Corn, Field) [3]; rate 0.2500 kg/ha): 1.0
Postemergence herbicidal rating GALAP (GALAP (Galium); Rate 0.0158 kg/ha): 0.0
Postemergence herbicidal rating GALAP (GALAP (Galium); Rate 0.0315 kg/ha): 0.0
Postemergence herbicidal rating GALAP (GALAP (Galium); Rate 0.0630 kg/ha): 0.0
Preemergence herbicidal rating ORYSAT (ORYSAT (Rice, Tebonnet); rate 0.1250 kg/ha): 0.0
Preemergence herbicidal rating ORYSAT (ORYSAT (Rice, Tebonnet); rate 0.2500 kg/ha): 1.0
Preemergence herbicidal rating IPOHE ([4]; rate 0.1250 kg/ha): 0.0
Preemergence herbicidal rating IPOHE ([4]; rate 0.2500 kg/ha): 0.0
Preemergence herbicidal rating AMBEL (AMBEL (Ragweed, Common); rate 0.1250 kg/ha): 0.0
Preemergence herbicidal rating AMBEL (AMBEL (Ragweed, Common); rate 0.2500 kg/ha): 0.0
ECHORC herbicidal effect rating [5]: 0.0
Herbicidal rating CYPSE (CYPSE (Flatsedge) [6]; [11]): 0.0
Herbicidal rating ECHORC [7, 11]: 0.0
Postemergence herbicidal rating ZEAMX (ZEAMX (Corn, Field) [8]; Rate 0.0158 kg/ha): 2.0
Postemergence herbicidal rating ZEAMX (ZEAMX (Corn, Field) [8]; Rate 0.0315 kg/ha): 2.0
Postemergence herbicidal rating ZEAMX (ZEAMX (Corn, Field) [8]; Rate 0.0630 kg/ha): 3.0
Preemergence herbicidal rating CHEAL ([9]; rate 0.1250 kg/ha): 7.0
Preemergence herbicidal rating CHEAL ([9]; rate 0.2500 kg/ha): 9.0
